Patent publication US20240368104A1, “Novel Dialkoxynaphtho[2,3-C]Furan-1(3H)-One Derivatives and Pharmaceutical Composition For Preventing or Treating Respiratory Disease or SARS-COV-2 Infection Disease, Comprising Same” (priority 2021, published 2024)
Structures can show the parent of a compound that is named as a salt. Where two headings read alike, the source gives them in different places.

Key:
[1] = system: SARS-COV-2; experiment: microbe, parasite or virus in culture; type: cell-based; parameters: SI (Selectivity Index, CC50/IC50): unit not given here; details: for IC50: read-out: SARS-COV-2 inhibition (IC50); for SI (Selectivity Index, CC50/IC50): SARS-COV-2, values >50 assumed to be 50
[2] = in vitro; details: African green monkey
[3] = Severe acute respiratory syndrome coronavirus 2, Vero, 24 h
[4] = Severe acute respiratory syndrome coronavirus 2, Vero cells, 24 hours infection

| Structure (SMILES) | IC50 [1, 3] [µM] | CC50 [2] [µM] | SI (Selectivity Index, CC50/IC50) [1] | IC50 [1, 4] [µM] |
| --- | --- | --- | --- | --- |
| COc1cc2cc3c(c(-c4cnc(N5CCCC(O)C5)nc4)c2cc1OC)C(=O)OC3.Cl (centres unmarked) [Example 80, 9-(2-(3-hydroxyperidin-1-ylpyrimidin-5-yl)-6,7-dimethoxynaphtho[2,3-c]furan-1(3H)-one hydrochloride] | 11.9 | > 50 | – | – |
| COc1cc2cc3c(c(-c4cc5c(cc4OC(=O)C(N)C(C)C)OCO5)c2cc1OC)C(=O)OC3.Cl (stereo in doubt) [Example 269, 6-(6,7-dimethoxy-3-oxo-1,3-dihydronaphtho[2,3-c]furan-4-yl)benzo[d][1,3]dioxol-5-yl L-valinate hydrochloride] | 0.53 | > 50 | 94.66 | – |
| COc1cc2cc3c(c(-c4ccc5nccc(N6CCNCC6)c5c4)c2cc1OC)C(=O)OC3 [Example 135, 6,7-dimethoxy-9-(4-(piperazin-1-yl)quinolin-6-yl)naphtho[2,3-c]furan-1(3H)-one] | – | > 50 | 2.90 | 17.2 |
| COc1cc2cc(CO)c(C(=O)Cl)c(-c3cc4c(cc3O)OCO4)c2cc1OC [Example 224, 1-(6-hydroxybenzo[d][1,3]dioxol-5-yl)-3-(hydroxymethyl)-6,7-dimethoxy-2-naphthoyl chloride] | – | > 50 | 2.63 | 1.9 |
| COc1cc2cc3c(c(-c4cnc(N(C)c5ccc(C)c(C)c5)nc4)c2cc1OC)C(=O)OC3 [Example 109, 9-(2-((3,4-dimethylphenyl)(methyl)amino)pyrimidin-5-yl)-6,7-dimethoxynaphtho[2,3-c]furan-1(3H)-one] | – | > 50 | 18.73 | 2.67 |
| CCN(c1ccc(-c2c3c(cc4cc(OC)c(OC)cc24)COC3=O)cn1)C1CCCC1 [Example 191, 9-(6-(cyclopentyl(ethyl)amino)pyridin-3-yl)-6,7-dimethoxynaphtho[2,3-c]furan-1(3H)-one] | – | > 50 | 35.47 | 1.41 |
| CCN(c1ccc(-c2c3c(cc4cc(OC)c(OC)cc24)COC3=O)cn1)C(C)C [Example 182, 9-(6-(ethyl(isopropyl)amino)pyridin-3-yl)-6,7-dimethoxynaphtho[2,3-c]furan-1(3H)-one] | – | > 50 | 75.67 | 0.66 |
| COc1cc2cc3c(c(-c4ccc(C(=O)C(F)(F)F)cc4)c2cc1OC)C(=O)OC3 [Example 210, 6,7-dimethoxy-9-(4-(2,2,2-trifluoroacetyl)phenyl)naphtho[2,3-c]furan-1(3H)-one] | 10.2 | > 50 | 4.91 | – |
| CCCCN(CC)c1ncc(-c2c3c(cc4cc(OC)c(OC)cc24)COC3=O)cn1 [Example 66, 9-(2-(butyl(ethyl)amino)pyrimidin-5-yl)-6,7-dimethoxynaphtho[2,3-c]furan-1(3H)-one] | – | > 50 | 19.03 | 2.63 |
| COc1cc2cc3c(c(-c4ccc5c(c4)N(C)CCC5)c2cc1OC)C(=O)OC3 [Example 170, 6,7-dimethoxy-9-(1-methyl-1,2,3,4-tetrahydroquinolin-7-yl)naphtho[2,3-c]furan-1(3H)-one] | – | > 50 | 24.25 | 2.06 |
| COc1cc2cc(CO)c(C(=O)NC(C)C)c(-c3cc4c(cc3O)OCO4)c2cc1OC [Example 228, 1-(6-hydroxybenzo[d][1,3]dioxol-5-yl)-3-(hydroxymethyl)-N-isopropyl-6,7-dimethoxy-2-naphthamide] | – | > 50 | 1.50 | 33.4 |
| COc1cc2cc3c(c(-c4ccc(N(C)C(=O)N5CCOCC5)nc4)c2cc1OC)C(=O)OC3 [Example 235, N-(5-(6,7-dimethoxy-3-oxo-1,3-dihydronaphtho[2,3-c]furan-4-yl)pyridin-2-yl)-N-methylmorpholin-4-carboxamide] | – | > 50 | 1.00 | > 50 |
| COc1cc2cc3c(c(-c4cnc(N(C)CC(OC)OC)nc4)c2cc1OC)C(=O)OC3 [Example 94, 9-(2-((2,2-dimethoxyethyl)(methyl)amino)pyrimidin-5-yl)-6,7-dimethoxynaphtho[2,3-c]furan-1(3H)-one] | – | > 50 | 10.16 | 4.92 |
| COc1cc2cc3c(c(-c4ccnc5c(F)cccc45)c2cc1OC)C(=O)OC3 [Example 137, 9-(8-fluoroquinolin-4-yl)-6,7-dimethoxynaphtho[2,3-c]furan-1(3H)-one] | – | > 50 | 1.0 | > 50 |
| COc1cc2cc3c(c(-c4ccnc(Cl)c4)c2cc1OC)C(=O)OC3 [Example 184, 9-(2-chloropyridin-4-yl)-6,7-dimethoxynaphtho[2,3-c]furan-1(3H)-one] | – | > 50 | 1.0 | > 50 |
| COc1cc2cc3c(c(-c4cnc(NC5CC5)nc4)c2cc1OC)C(=O)OC3 [Example 69, 9-(2-(cyclopropylamino)pyrimidin-5-yl)-6,7-dimethoxynaphtho[2,3-c]furan-1(3H)-one] | – | > 50 | 1.00 | > 50 |
| COc1cc2cc3c(c(-c4ccc(N5CCC(N(C)C)CC5)nc4)c2cc1OC)C(=O)OC3.Cl [Example 238, 9-(6-(4-(dimethylamino)piperidin-1-yl)pyridin-3-yl)-6,7-dimethoxynaphtho[2,3-c]furan-1(3H)-one] | 17.6 | > 50 | 2.84 | – |
| COc1cc2cc3c(c(-c4cnc(N5CCCCC5CO)nc4)c2cc1OC)C(=O)OC3 (centres unmarked) [Example 104, 9-(2-(2-(hydroxymethyl)piperidin-1-yl)pyrimidin-5-yl)-6,7-dimethoxynaphtho[2,3-c]furan-1(3H)-one hydrochloride] | > 50 | > 50 | 1.0 | – |
| COc1cc2cc(CO)c(C(=O)[O-])c(-c3cc4c(cc3O)OCO4)c2cc1OC.[Na+] [Example 212, 1-(6-hydroxybenzo[d][1,3]dioxol-5-yl)-3-(hydroxymethyl)-6,7-dimethoxy-2-naphthoate sodium (I)] | – | > 50 | 2.81 | 17.8 |
| COc1cc2cc3c(c(-c4cnc(N5C[C@H](C)O[C@@H](C)C5)nc4)c2cc1OC)C(=O)OC3 [Example 62, 9-(2-((2S,6S)-2,6-dimethylmorpholino)pyrimidin-5-yl)-6,7-dimethoxynaphtho[2,3-c]furan-1(3H)] | – | > 50 | 1.00 | > 50 |
| COc1cc2c(OC)c3c(c(-c4ccc(N(C)c5cccc(C(F)(F)F)c5)nc4)c2cc1OC)COC3=O.Cl [Example 263, 6,7,9-trimethoxy-4-(6-(methyl(3-(trifluoromethyl)phenyl)amino)pyridin-3-yl)naphtho[2,3-c]furan-1(3H)-one] | > 50 | > 50 | 1.00 | – |
| COc1cc2cc3c(c(-c4ccc(N5CCc6ccccc6C5)nc4)c2cc1OC)C(=O)OC3.Cl [Example 189, 9-(6-(3,4-dihydroisoquinolin-2 (1H)-yl)pyridin-3-yl)-6,7-dimethoxynaphtho[2,3-c]furan-1(3H)-one] | 0.69 | > 50 | 72.26 | – |
| CCN(CC)CCNc1ncc(-c2c3c(cc4cc(OC)c(OC)cc24)COC3=O)cn1 [Example 58, 9-(2-((2-(diethylamino)ethyl)amino)pyrimidin-5-yl)-6,7-dimethoxynaphtho[2,3-c]furan-1(3H)-one] | – | > 50 | 1.66 | 30.1 |
| COc1cc2cc3c(c(-c4ccc5c(c4)CN(C)CC5)c2cc1OC)C(=O)OC3 [Example 190, 6,7-dimethoxy-9-(2-methyl-1,2,3,4-tetrahydroisoquinolin-7-yl)naphtho[2,3-c]furan-1(3H)-one] | – | > 50 | 1.73 | 29 |
| COc1cc2cc3c(c(N4CCN(c5ncc(Br)cn5)CC4)c2cc1OC)C(=O)OC3 [Example 131, 9-(4-(5-bromopyrimidin-2-yl)piperazin-1-yl)-6,7-dimethoxynaphtho[2,3-c]furan-1(3H)-one] | – | > 50 | 1.44 | 34.6 |
| COc1cc2cc3c(c(-c4ccc(N5CCCC5)cc4)c2cc1OC)C(=O)OC3 [Example 251, 6,7-dimethoxy-9-(4-(pyrrolidin-1-yl)phenyl)naphtho[2,3-c]furan-1(3H)-one] | – | > 50 | 119.39 | 0.42 |
| COc1ccc2nc(C)cc(-c3c4c(cc5cc(OC)c(OC)cc35)COC4=O)c2c1 [Example 155, 6,7-dimethoxy-9-(6-methoxy-2-methylquinolin-4-yl)naphtho[2,3-c]furan-1(3H)-one] | – | > 50 | 1.0 | > 50 |
